Measurements: the NIST ThermoML archive (doi:10.1021/je800889y)

Assay: excess molar enthalpy (molar enthalpy of mixing); xn = mol fraction of the nth substance listed
Conditions: 101.3 kPa, Liquid, Flow calorimetry

CCOC(=O)CC(C)=O [ethyl 3-oxobutanoate] + CCCCO
excess molar enthalpy [kcal/mol]
Conditions | 298.15 K | 313.15 K | 328.15 K | 338.15 K | 348.15 K
x1 = 0.1003 | 0.218 | 0.239 | 0.267 | 0.271 | 0.277
x1 = 0.2002 | 0.337 | 0.374 | 0.433 | 0.445 | 0.454
x1 = 0.3 | 0.408 | 0.463 | 0.539 | 0.553 | 0.562
x1 = 0.3502 | 0.433 | 0.494 | 0.57 | 0.586 | 0.596
x1 = 0.3999 | 0.449 | 0.515 | 0.591 | 0.605 | 0.615
x1 = 0.45 | 0.459 | 0.531 | 0.6 | 0.615 | 0.623
x1 = 0.5005 | 0.462 | 0.532 | 0.599 | 0.613 | 0.619
x1 = 0.5501 | 0.459 | 0.524 | 0.589 | 0.6 | 0.605
x1 = 0.5999 | 0.449 | 0.507 | 0.567 | 0.577 | 0.578
x1 = 0.6499 | 0.431 | 0.482 | 0.537 | 0.543 | 0.543
x1 = 0.7 | 0.403 | 0.445 | 0.494 | 0.497 | 0.498
x1 = 0.8005 | 0.321 | 0.338 | 0.371 | 0.372 | 0.372
x1 = 0.9007 | 0.183 | 0.191 | 0.201 | 0.201 | 0.202

CCOC(=O)CC(C)=O [ethyl 3-oxobutanoate] + CCC(C)O
excess molar enthalpy [kcal/mol]
Conditions | 298.15 K | 313.15 K | 328.15 K | 338.15 K | 348.15 K
x1 = 0.1002 | 0.234 | 0.269 | 0.287 | 0.293 | 0.294
x1 = 0.1997 | – | 0.421 | 0.463 | 0.472 | 0.474
x1 = 0.2008 | 0.363 | – | – | – | –
x1 = 0.2998 | – | 0.517 | 0.568 | 0.583 | 0.584
x1 = 0.3009 | 0.439 | – | – | – | –
x1 = 0.3999 | – | 0.569 | 0.623 | 0.637 | 0.639
x1 = 0.4011 | 0.483 | – | – | – | –
x1 = 0.45 | – | 0.583 | 0.631 | 0.646 | 0.647
x1 = 0.4512 | 0.493 | – | – | – | –
x1 = 0.5004 | – | 0.583 | 0.629 | 0.641 | 0.644
x1 = 0.5017 | 0.496 | – | – | – | –
x1 = 0.5499 | – | 0.576 | 0.616 | 0.624 | 0.626
x1 = 0.5512 | 0.492 | – | – | – | –
x1 = 0.5995 | – | 0.555 | 0.592 | 0.598 | 0.6
x1 = 0.6009 | 0.48 | – | – | – | –
x1 = 0.6493 | – | 0.527 | 0.557 | 0.558 | 0.56
x1 = 0.6507 | 0.46 | – | – | – | –
x1 = 0.7007 | 0.43 | 0.486 | 0.507 | 0.508 | 0.508
x1 = 0.8005 | 0.338 | 0.37 | 0.38 | 0.381 | 0.383
x1 = 0.8999 | 0.192 | 0.208 | 0.211 | 0.212 | 0.212

CCOC(=O)CC(C)=O [ethyl 3-oxobutanoate] + CCOC(C)=O
excess molar enthalpy [kcal/mol]
Conditions | 298.15 K | 313.15 K | 328.15 K | 338.15 K | 348.15 K
x1 = 0.1005 | 0.00598 | 0.00598 | 0.00502 | 0.00454 | 0.00406
x1 = 0.1995 | 0.0098 | 0.01 | 0.00837 | 0.00789 | 0.00693
x1 = 0.2996 | 0.0124 | 0.0127 | 0.0105 | 0.0098 | 0.0086
x1 = 0.3495 | 0.0129 | 0.0136 | 0.0112 | 0.0105 | 0.00932
x1 = 0.3995 | 0.0134 | 0.0141 | 0.0115 | 0.011 | 0.0098
x1 = 0.4496 | 0.0136 | 0.0146 | 0.0117 | 0.0112 | 0.01
x1 = 0.4998 | 0.0134 | 0.0146 | 0.0115 | 0.011 | 0.01
x1 = 0.55 | 0.0131 | 0.0143 | 0.0112 | 0.0108 | 0.0098
x1 = 0.6001 | 0.0124 | 0.0139 | 0.0105 | 0.0103 | 0.00932
x1 = 0.6502 | 0.0117 | 0.0134 | 0.0098 | 0.0098 | 0.00908
x1 = 0.7001 | 0.011 | 0.0124 | 0.00884 | 0.00884 | 0.00837
x1 = 0.7994 | 0.00837 | 0.01 | 0.00645 | 0.00693 | 0.00645
x1 = 0.9004 | 0.00454 | 0.00669 | 0.0043 | 0.00406 | 0.00406

CCOC(=O)CC(C)=O [ethyl 3-oxobutanoate] + O
excess molar enthalpy [kcal/mol]
Conditions | 298.15 K | 313.15 K | 328.15 K | 338.15 K | 348.15 K
x1 = 0.1502 | 0.0418 | 0.066 | 0.0923 | 0.113 | 0.133
x1 = 0.2994 | 0.102 | 0.143 | 0.187 | 0.222 | 0.26
x1 = 0.4491 | 0.163 | 0.22 | 0.283 | 0.334 | 0.386
x1 = 0.6014 | 0.221 | 0.294 | 0.375 | 0.436 | 0.462
x1 = 0.6499 | – | – | – | 0.427 | 0.452
x1 = 0.7001 | 0.258 | 0.335 | 0.379 | 0.406 | 0.427
x1 = 0.7514 | 0.27 | 0.315 | 0.35 | 0.374 | 0.386
x1 = 0.797 | – | – | – | 0.331 | 0.337
x1 = 0.8474 | 0.208 | 0.239 | 0.257 | – | –
x1 = 0.9034 | 0.143 | 0.166 | 0.176 | 0.186 | 0.188
x1 = 0.9496 | 0.0765 | 0.092 | 0.0932 | – | –

CCOC(=O)CC(C)=O [ethyl 3-oxobutanoate] + CCCCCO
excess molar enthalpy [kcal/mol]
Conditions | 298.15 K | 313.15 K | 328.15 K | 338.15 K | 348.15 K
x1 = 0.0998 | 0.218 | 0.251 | 0.269 | 0.282 | 0.283
x1 = 0.1996 | 0.331 | 0.399 | 0.443 | 0.46 | 0.461
x1 = 0.3006 | 0.409 | 0.49 | 0.55 | 0.571 | 0.572
x1 = 0.3505 | 0.432 | 0.521 | 0.587 | 0.606 | 0.606
x1 = 0.4001 | 0.449 | 0.541 | 0.608 | 0.629 | 0.632
x1 = 0.4504 | 0.46 | 0.554 | 0.621 | 0.641 | 0.644
x1 = 0.5003 | 0.465 | 0.557 | 0.622 | 0.641 | 0.644
x1 = 0.5498 | 0.463 | 0.551 | 0.612 | 0.63 | 0.632
x1 = 0.6 | 0.455 | 0.54 | 0.596 | 0.607 | 0.61
x1 = 0.6497 | 0.44 | 0.517 | 0.563 | 0.573 | 0.575
x1 = 0.7002 | 0.417 | 0.483 | 0.521 | 0.526 | 0.527
x1 = 0.7995 | 0.342 | 0.381 | 0.398 | 0.399 | 0.399
x1 = 0.9004 | 0.203 | 0.215 | 0.222 | 0.222 | 0.223
